Test system: ABCA-1 gene
Experiment: compounds tested and found to elevate cellular expression of the ABCA-1 gene (Examples 1-6; test not named)
Format: cell-based
Method: Activity testing is conducted as described in those patents and patent applications referenced above, and in the Examples below, and by methods apparent to one skilled in the art.

For CCOC(=O)CC(=O)CSc1nnc(NC(=O)c2ccc(Cl)cc2)s1 [ethyl 4-{5-[(4-chlorophenyl)carbonylamino](1,3,4-thiadiazol-2-ylthio)}-3-oxobutanoate], which “cellular expression of the ABCA-1 gene” value is on record?
The value was “elevate cellular expression of the ABCA-1 gene”.

With O=C(Nc1ncc(-c2ccccc2)s1)c1ccno1 [isoxazol-5-yl-N-(5-phenyl(1,3-thiazol-2-yl))carboxamide] as the molecule, how does the “cellular expression of the ABCA-1 gene” value read?
The value was “elevate cellular expression of the ABCA-1 gene”.

How did the “cellular expression of the ABCA-1 gene” value turn out when COC(=O)c1ccc(C(=O)NC2=NCCS2)cc1 [methyl 4-(N-(1,3-thiazolin-2-yl)carbamoyl)benzoate] was run?
The value was “elevate cellular expression of the ABCA-1 gene”.

COC(=O)c1ccc(C(=O)NC2=NC(=O)CS2)cc1 [methyl 4-[N-(4-oxo-1,3-thiazolin-2-yl)carbamoyl]benzoate] was tested. Which “cellular expression of the ABCA-1 gene” value did it give?
The value was “elevate cellular expression of the ABCA-1 gene”.

How did the “cellular expression of the ABCA-1 gene” value turn out when COC(=O)c1ccc(/N=C(\NC2CCCCC2)N2CCN(Cc3ccc4c(c3)OCO4)CC2)c(O)c1 [methyl 4-{(1E)-1-aza-2-[4-(2H-benzo[d]1,3-dioxolen-5-ylmethyl)piperazinyl]-2-(cyclohexylamino)vinyl}-3-hydroxybenzoate] was run?
Its value is “elevate cellular expression of the ABCA-1 gene”.

For Nc1c(C(=O)Oc2ccccc2)oc2nc3c(cc12)CCC3 [phenyl 3-amino-5,6,7-trihydrocyclopenta[1,2-b]furano[4,5-e]pyridine-2-carboxylate], which “cellular expression of the ABCA-1 gene” value is on record?
The value was “elevate cellular expression of the ABCA-1 gene”.

With O=C(NC1=NCCS1)c1ccccc1 [phenyl-N-(1,3-thiazolin-2-yl)carboxamide] as the molecule, how does the “cellular expression of the ABCA-1 gene” value read?
Its value is “elevate cellular expression of the ABCA-1 gene”.

O=C(NCCc1ccccn1)c1ccccc1 [phenyl-N-(2-(2-pyridyl)ethyl)carboxamide] was tested. Which “cellular expression of the ABCA-1 gene” value did it give?
Its value is “elevate cellular expression of the ABCA-1 gene”.

For O=C1CSC(NC(=O)c2ccccc2)=N1 [phenyl-N-(4-oxo(1,3-thiazolin-2-yl))carboxamide], which “cellular expression of the ABCA-1 gene” value is on record?
The value was “elevate cellular expression of the ABCA-1 gene”.

CCc1c(C(=O)NCC(C)C)cnn1-c1nc(-c2ccc(Br)cc2)cs1 [{1-[4-(4-bromophenyl)(1,3-thiazol-2-yl)]-5-ethylpyrazol-4-yl}-N-(2-methylpropyl)carboxamide] was tested. Which “cellular expression of the ABCA-1 gene” value did it give?
Its value is “elevate cellular expression of the ABCA-1 gene”.

How did the “cellular expression of the ABCA-1 gene” value turn out when CCCCCCNC(=O)c1cnn(-c2nc(-c3ccc(Br)cc3)cs2)c1CC [{1-[4-(4-bromophenyl)(1,3-thiazol-2-yl)]-5-ethylpyrazol-4-yl}-N-hexylcarboxamide] was run?
The value was “elevate cellular expression of the ABCA-1 gene”.

Which “cellular expression of the ABCA-1 gene” value does the source give for CCc1c(C(=O)N2CCN(C(=O)c3ccc4ccccc4c3)C(C)C2)cnn1-c1nc(-c2ccc(Cl)cc2)cs1 (centres unmarked) [{1-[4-(4-chloro-phenyl)-thiazol-2-yl]-5-ethyl-1H-pyrazol-4-yl}-[3-methyl-4-(naphthalene-2-carbonyl)-piperazin-1-yl]-methanone] here?
The value was “elevate cellular expression of the ABCA-1 gene”.

Which “cellular expression of the ABCA-1 gene” value does the source give for Cc1c(C(=O)NCc2ccccc2)cnn1-c1nc(-c2ccc(Cl)cc2)cs1 [{1-[4-(4-chlorophenyl)(1,3-thiazol-2-yl)]-5-methylpyrazol-4-yl}-N-benzylcarboxamide] here?
The value was “elevate cellular expression of the ABCA-1 gene”.

Cc1c(C(=O)NC2CC2)cnn1-c1nc(C(C)(C)C)cs1 [{1-[4-(tert-butyl)(1,3-thiazol-2-yl)]-5-methylpyrazol-4-yl}-N-cyclopropylcarboxamide] was tested. Which “cellular expression of the ABCA-1 gene” value did it give?
The value was “elevate cellular expression of the ABCA-1 gene”.

Which “cellular expression of the ABCA-1 gene” value does the source give for CCc1c(C(=O)NCCC(C)C)cnn1-c1nc(-c2ccc(OC)cc2)cs1 [{5-ethyl-1-[4-(4-methoxyphenyl)(1,3-thiazol-2-yl)]pyrazol-4-yl}-N-(3-methylbutyl)carboxamide] here?
Its value is “elevate cellular expression of the ABCA-1 gene”.

How did the “cellular expression of the ABCA-1 gene” value turn out when CCc1c(C(=O)NCCc2ccccc2)cnn1-c1nc(-c2ccc(C)cc2)cs1 [{5-ethyl-1-[4-(4-methylphenyl)(1,3-thiazol-2-yl)]pyrazol-4-yl}-N-(2-phenylethyl)carboxamide] was run?
Its value is “elevate cellular expression of the ABCA-1 gene”.

For Cc1c(C(=O)NCCc2ccccc2)cnn1-c1nc(-c2ccc(F)cc2)cs1 [{5-methyl-1-[4-(4-fluorophenyl)(1,3-thiazol-2-yl)]pyrazol-4-yl}-N-(2-phenylethyl)carboxamide], which “cellular expression of the ABCA-1 gene” value is on record?
The value was “elevate cellular expression of the ABCA-1 gene”.

With CCCCNC(=O)c1cnn(-c2nc(-c3ccc(C)cc3)cs2)c1C [{5-methyl-1-[4-(4-methylphenyl)(1,3-thiazol-2-yl)]pyrazol-4-yl}-N-butylcarboxamide] as the molecule, how does the “cellular expression of the ABCA-1 gene” value read?
Its value is “elevate cellular expression of the ABCA-1 gene”.

With CCCCCNC(=O)c1cnn(-c2nc(-c3ccc(C)cc3)cs2)c1C [{5-methyl-1-[4-(4-methylphenyl)(1,3-thiazol-2-yl)]pyrazol-4-yl}-N-pentylcarboxamide] as the molecule, how does the “cellular expression of the ABCA-1 gene” value read?
The value was “elevate cellular expression of the ABCA-1 gene”.

With “(2,4-difluorophenyl)-N-(4-naphthyl(1,3-thiazol-2-yl))carboxamide” as the molecule, how does the “cellular expression of the ABCA-1 gene” value read?
The value was “elevate cellular expression of the ABCA-1 gene”.

“(3-chlorobenzo[b]thiophen-2-yl)-N-(ethynylcyclohexyl)carboxamide” was tested. Which “cellular expression of the ABCA-1 gene” value did it give?
Its value is “elevate cellular expression of the ABCA-1 gene”.

Which “cellular expression of the ABCA-1 gene” value does the source give for “N-(2-phenylcyclopropyl)piperidylcarboxamide” here?
The value was “elevate cellular expression of the ABCA-1 gene”.

Which “cellular expression of the ABCA-1 gene” value does the source give for “N-(4-naphthyl(1,3-thiazol-2-yl))(4-phenylphenyl)carboxamide” here?
Its value is “elevate cellular expression of the ABCA-1 gene”.

How did the “cellular expression of the ABCA-1 gene” value turn out when “N-(4-naphthyl(1,3-thiazol-2-yl))[3-(trifluoromethyl)phenyl]carboxamide” was run?
The value was “elevate cellular expression of the ABCA-1 gene”.

How did the “cellular expression of the ABCA-1 gene” value turn out when “N-(4-naphthyl(1,3-thiazol-2-yl))[4-(trifluoromethoxy)phenyl]carboxamide” was run?
The value was “elevate cellular expression of the ABCA-1 gene”.

How did the “cellular expression of the ABCA-1 gene” value turn out when “[4-(methylethyl)phenyl]-N-(4-oxo(1,3-thiazolin-2-yl))carboxamide” was run?
The value was “elevate cellular expression of the ABCA-1 gene”.

How did the “cellular expression of the ABCA-1 gene” value turn out when “[4-(tert-butyl)phenyl]-N-(4-naphthyl(1,3-thiazol-2-yl))carboxamide” was run?
The value was “elevate cellular expression of the ABCA-1 gene”.

For “[((2E)-2-pentyl-3-phenylprop-2-enyl)({1-[(4-butylphenyl)carbonyl](4-piperidyl)}methyl)amino]-N-benzamide”, which “cellular expression of the ABCA-1 gene” value is on record?
Its value is “elevate cellular expression of the ABCA-1 gene”.

“{1-[4-(3-methoxyphenyl)(1,3-thiazol-2-yl)]-5-methylpyrazol-4-yl}-N-(methylethyl)carboxamide” was tested. Which “cellular expression of the ABCA-1 gene” value did it give?
The value was “elevate cellular expression of the ABCA-1 gene”.

From patent US6900219B2, “ABCA-1 elevating compounds” (CV Therapeutics, Inc., priority 2002, dated 2005)
